The term EC50 denotes the concentration needed to bring the measured effect to its halfway point. Read a high EC50 as a need for much substance.

Drawing on patent US11318137B2, “Quinazoline compounds as modulators of Ras signaling” (VANDERBILT UNIVERSITY, priority 2017, dated 2022), this text covers EC50, Ki and IC50 for 16 compounds.

Structures are written as SMILES.

For test [1], the target named is T1, SOS-mediated nucleotide exchange on Ras (Homo sapiens, UniProt Q07889).
T1 sequence (Q07889 1-1333): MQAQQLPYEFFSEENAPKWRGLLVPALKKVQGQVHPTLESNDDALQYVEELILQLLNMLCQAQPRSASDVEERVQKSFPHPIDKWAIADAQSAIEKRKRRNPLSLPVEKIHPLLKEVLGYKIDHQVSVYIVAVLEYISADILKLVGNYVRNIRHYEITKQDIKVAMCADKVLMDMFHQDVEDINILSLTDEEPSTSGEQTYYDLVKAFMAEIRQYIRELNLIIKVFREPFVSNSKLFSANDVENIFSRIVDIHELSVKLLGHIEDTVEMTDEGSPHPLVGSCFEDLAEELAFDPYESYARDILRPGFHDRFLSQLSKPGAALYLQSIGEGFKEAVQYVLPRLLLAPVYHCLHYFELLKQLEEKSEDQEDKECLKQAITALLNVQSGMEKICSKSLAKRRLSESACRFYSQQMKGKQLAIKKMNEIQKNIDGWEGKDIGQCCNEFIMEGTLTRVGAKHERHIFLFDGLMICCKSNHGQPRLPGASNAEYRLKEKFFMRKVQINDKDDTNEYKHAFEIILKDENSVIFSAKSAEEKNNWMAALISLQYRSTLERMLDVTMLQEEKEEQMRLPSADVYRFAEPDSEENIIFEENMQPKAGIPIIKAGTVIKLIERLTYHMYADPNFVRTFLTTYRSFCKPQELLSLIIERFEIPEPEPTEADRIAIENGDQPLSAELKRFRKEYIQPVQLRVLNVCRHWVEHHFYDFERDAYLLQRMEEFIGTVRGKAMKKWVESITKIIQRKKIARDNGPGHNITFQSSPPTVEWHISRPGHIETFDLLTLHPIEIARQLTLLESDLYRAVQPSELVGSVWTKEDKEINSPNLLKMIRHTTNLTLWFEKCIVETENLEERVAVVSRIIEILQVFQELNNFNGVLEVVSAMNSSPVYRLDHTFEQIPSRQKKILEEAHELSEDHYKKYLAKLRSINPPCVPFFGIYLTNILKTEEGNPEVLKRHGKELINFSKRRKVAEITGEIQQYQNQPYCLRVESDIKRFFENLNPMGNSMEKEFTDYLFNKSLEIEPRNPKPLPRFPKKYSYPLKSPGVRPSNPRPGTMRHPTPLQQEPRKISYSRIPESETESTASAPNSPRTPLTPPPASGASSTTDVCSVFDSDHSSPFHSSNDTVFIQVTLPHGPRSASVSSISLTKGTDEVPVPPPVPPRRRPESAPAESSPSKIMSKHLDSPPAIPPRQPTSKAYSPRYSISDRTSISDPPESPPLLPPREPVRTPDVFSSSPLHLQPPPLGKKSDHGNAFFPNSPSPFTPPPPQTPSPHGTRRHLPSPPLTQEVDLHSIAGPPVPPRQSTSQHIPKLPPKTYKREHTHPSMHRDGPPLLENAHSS
Nature of the test: SOS-mediated nucleotide exchange on Ras (BODIPY-GDP fluorescence). It counts as biochemical. The note with it: Ras loaded with BODIPY-GDP, GTP and SOS added; EC50 from derived exchange rates. A digest of the protocol:
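Compound, then GTP and SOS, were added to buffered Ras preloaded with BODIPY-GDP, and the fluorescence change from labeled GDP being exchanged for GTP was followed over time. Rates came from single-exponential fits, and EC50 from a four-parameter fit of mean rate against compound concentration.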

The target of the next test is T2, Son of Sevenless (SOS) (Homo sapiens, UniProt Q07889).
T2 sequence (Q07889 564-1049 limits assumed): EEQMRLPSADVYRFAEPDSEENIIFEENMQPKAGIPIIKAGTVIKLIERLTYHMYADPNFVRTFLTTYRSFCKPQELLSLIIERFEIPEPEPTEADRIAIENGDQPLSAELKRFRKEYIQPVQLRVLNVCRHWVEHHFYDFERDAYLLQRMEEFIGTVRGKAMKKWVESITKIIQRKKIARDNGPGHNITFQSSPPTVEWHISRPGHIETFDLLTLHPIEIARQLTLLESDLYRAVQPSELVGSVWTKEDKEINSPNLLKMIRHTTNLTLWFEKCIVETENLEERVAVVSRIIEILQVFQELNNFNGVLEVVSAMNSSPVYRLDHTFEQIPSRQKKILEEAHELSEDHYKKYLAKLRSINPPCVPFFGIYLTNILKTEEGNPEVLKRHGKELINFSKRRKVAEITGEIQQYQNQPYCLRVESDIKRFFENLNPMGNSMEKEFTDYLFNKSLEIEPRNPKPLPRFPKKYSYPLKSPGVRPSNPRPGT
Nature of the test: Binding to SOS, fluorescence polarization anisotropy (FPA) displacement of FITC-conjugated probe. The note with it: binding affinity calculated from IC50 of FITC-probe displacement, read-out: Binding affinities (binding affinity to SOS). The essentials: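 FITC-labelled probe incubated with SOS in buffer; displacement by test compound across a dose range read as fluorescence anisotropy change. IC50 from four-parameter variable-slope fit, binding affinity calculated from IC50.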

For test [2], the system named is H727 lung cancer cell lines, which contain a G12V K-Ras mutation. Nature of the test: Inhibition of cancer cell proliferation (CellTiter-Glo, 3 days). It counts as cell-based. Conditions: Homo sapiens, NCI-H727, 72 h, H727 cells, 3 days at 37° C., normalized to DMSO control, read-out: Cell proliferation activity (H727 cancer cell line proliferation IC50). The procedure: C. Inhibition of Cancer Cell Proliferation
Compounds of the present invention were measured for their ability to kill H727 lung cancer cell lines, which contain a G12V K-Ras mutation. Cell proliferation experiments were conducted in 96-well plates. Cells were plated at 1000 cells/well, incubated overnight, followed by treatment with a dose range of compound for 3 days at 37° C. Cell proliferation was assessed using a CellTiter-Glo assay (Promega) according to the manufacturer's protocol. Data were normalized to DMSO control. IC50 values were determined using a four-parameter dose-response (variable slope) equation. These assays are performed in a manner analogous to the assay disclosed in: Burns, M. C.; Sun, Q.; Daniels, R. N.; Camper, D. V.; Kennedy, J. P.; Phan, J.; Olejniczak, E. O.; Lee, T.; Waterson, A. G.; Rossanese, O. W.; Fesik, S. W. “Approach for targeting Ras with small molecules that activate SOS-mediated nucleotide exchange” Proc. Natl. Acad. Sci. 2014; 11(9): 3401-3406. PMCID: PMC3948241.
In general terms: ATP-based viability assays read luminescence as a measure of living cells.

As for `C[C@@H](Nc1nc(Nc2ccc(F)c(Cl)c2)nc2c(C(=N)N)cccc12)C1CC1` [Example 57, (R)-2-((3-chloro-4-fluorophenyl)amino)-4-((1-cyclopropylethyl)amino)quinazoline-8-carboximidamide], the EC50 in test [1] was 1 to 5 µM. Besides, the Ki at Son of Sevenless (SOS) was more than 5 µM. The IC50 in test [2] lay within 1 to 5 µM.
On to `CNCc1cccc2c(N[C@H](C)C3CC3)nc(Nc3ccc(F)c(Cl)c3)nc12` [Example 58, (R)—N^2-(3-chloro-4-fluorophenyl)-N^4-(1-cyclopropylethyl)-8-((methylamino)methyl)quinazoline-2,4-diamine], for which, in test [1], the EC50 was 5 to 30 µM. Also, on Son of Sevenless (SOS), the Ki is more than 5 µM. The IC50 in test [2] was 1 to 5 µM.
On the same counts, the results for `C[C@@H](Nc1nc(Nc2ccc(F)c(Cl)c2)nc2c(CNC(=N)N)cccc12)C1CC1` [Example 59, (R)-1-((2-((3-chloro-4-fluorophenyl)amino)-4-((1-cyclopropylethyl)amino)quinazolin-8-yl)methyl)guanidine] are 5 to 30 µM, more than 5 µM and 5 to 20 µM.
The compound `CC[C@@H](Nc1nc(Nc2ccc(F)c(Cl)c2)nc2c(N3CCNCC3)cccc12)C1CC1` [Example 64, (R)—N^2-(3-chloro-4-fluorophenyl)-N^4-(1-cyclopropylpropyl)-8-(piperazin-1-yl)quinazoline-2,4-diamine] yielded a concentration for a half-maximal effect (EC50) in test [1] of 1 to 5 µM. Further, the Ki at Son of Sevenless (SOS) is 1 to 5 µM. The IC50 in test [2] was less than 1 µM.
In turn, `CC[C@@H](Nc1nc(Nc2ccc(F)c(Cl)c2)nc2c(CN)cccc12)C1CC1` [Example 68, (R)-8-(aminomethyl)-N^2-(3-chloro-4-fluorophenyl)-N^4-(1-cyclopropylpropyl)quinazoline-2,4-diamine] yielded a concentration giving a half-maximal response (EC50) in test [1] of 1 to 5 µM. Besides, on Son of Sevenless (SOS), the Ki was more than 5 µM. Besides, the IC50 in test [2] is 1 to 5 µM.
For the compound `C[C@@H](Nc1nc(Oc2ccc(F)c(Cl)c2)nc2c(C3=CCNCC3)cccc12)C1CC1` [Example 69, (R)-2-(3-chloro-4-fluorophenoxy)-N-(1-cyclopropylethyl)-8-(1,2,3,6-tetrahydropyridin-4-yl)quinazolin-4-amine], the EC50 in test [1] was more than 30 µM. Besides, the Ki at Son of Sevenless (SOS) was more than 5 µM. In addition, the IC50 in test [2] is 1 to 5 µM.
As for `C[C@@H](Nc1nc(Nc2cc[nH]n2)nc2c(C3=CCNCC3)cccc12)C1CC1` [Example 70, (R)—N^4-(1-cyclopropylethyl)-N^2-(1H-pyrazol-3-yl)-8-(1,2,3,6-tetrahydropyridin-4-yl)quinazoline-2,4-diamine], in test [1], the EC50 is more than 30 µM. In addition, on Son of Sevenless (SOS), the Ki was more than 5 µM. Moreover, the IC50 in test [2] was in the range of 5 to 20 µM.
Consider `C[C@@H](Nc1nc(Nc2ccn(C)n2)nc2c(C3=CCNCC3)cccc12)C1CC1` [Example 71, (R)—N^4-(1-cyclopropylethyl)-N^2-(1-methyl-1H-pyrazol-3-yl)-8-(1,2,3,6-tetrahydropyridin-4-yl)quinazoline-2,4-diamine], for which, in test [1], the EC50 lay within 5 to 30 µM. Besides, the Ki on Son of Sevenless (SOS) is more than 5 µM. For the same compound, the IC50 in test [2] was in the range of 1 to 5 µM.
In the case of `C[C@@H](Nc1nc(NCc2ncco2)nc2c(C3=CCNCC3)cccc12)C1CC1` [Example 72, (R)—N^4-(1-cyclopropylethyl)-N^2-(oxazol-2-ylmethyl)-8-(1,2,3,6-tetrahydropyridin-4-yl)quinazoline-2,4-diamine], the concentration for a half-maximal effect (EC50) in test [1] lay in the range of 5 to 30 µM. Also, the Ki at Son of Sevenless (SOS) was more than 5 µM. For the same compound, the IC50 in test [2] lay in the range of 5 to 20 µM.
Consider `C1=C(c2cccc3c(NC(C4CC4)C4CC4)nc(NCC4CCCCC4)nc23)CCNC1` [Example 73, N^2-(cyclohexylmethyl)-N^4-(dicyclopropylmethyl)-8-(1,2,3,6-tetrahydropyridin-4-yl)quinazoline-2,4-diamine], for which the EC50 in test [1] fell in the range of 1 to 5 µM. Moreover, the Ki on Son of Sevenless (SOS) is 1 to 5 µM. Moreover, the IC50 in test [2] is less than 1 µM.
Consider `NCc1cccc2c(NC(C3CC3)C3CC3)nc(NCC3CCCCC3)nc12` [Example 75, 8-(aminomethyl)-N^2-(cyclohexylmethyl)-N^4-(dicyclopropylmethyl)quinazoline-2,4-diamine], for which, in test [1], the EC50 lay within 5 to 30 µM. Also, the Ki at Son of Sevenless (SOS) was more than 5 µM. Further, the IC50 in test [2] is less than 1 µM.
`C[C@@H](Nc1nc(NCC2CCCCC2)nc2c(C3=CCNCC3)cccc12)C1CC1` [Example 76, (R)—N^2-(cyclohexylmethyl)-N^4-(1-cyclopropylethyl)-8-(1,2,3,6-tetrahydropyridin-4-yl)quinazoline-2,4-diamine]: in test [1], the EC50 fell in the range of 1 to 5 µM. Moreover, the Ki at Son of Sevenless (SOS) was 1 to 5 µM. Moreover, in test [2], the IC50 was less than 1 µM.
`C[C@@H](Nc1nc(NCC2CCCCC2)nc2c(CN)cccc12)C1CC1` [Example 78, (R)-8-(aminomethyl)-N^2-(cyclohexylmethyl)-N^4-(1-cyclopropylethyl)quinazoline-2,4-diamine] came in with a 50% effective concentration (EC50) in test [1] of 1 to 5 µM. On Son of Sevenless (SOS), the Ki was more than 5 µM. Besides, the IC50 in test [2] fell in the range of 5 to 20 µM.
For `CCC(CC)CNc1nc(Nc2ccc(F)c(Cl)c2)nc2c(C3=CCNCC3)cccc12` [Example 98, N^2-(3-chloro-4-fluorophenyl)-N^4-(2-ethylbutyl)-8-(1,2,3,6-tetrahydropyridin-4-yl)quinazoline-2,4-diamine], the EC50 in test [1] lay within 5 to 30 µM. The Ki on Son of Sevenless (SOS) is 1 to 5 µM. For the same compound, the IC50 in test [2] is 1 to 5 µM.
Consider `CC[C@@H](Nc1nc(Nc2ccc(F)c(Cl)c2)nc2c(N3CCNCC3)cccc12)c1cccs1` [Example 101, (R)—N^2-(3-chloro-4-fluorophenyl)-8-(piperazin-1-yl)-N^4-(1-(thiophen-2-yl)propyl)quinazoline-2,4-diamine], for which the EC50 in test [1] was 5 to 30 µM. In addition, the Ki at Son of Sevenless (SOS) was more than 5 µM. In test [2], the IC50 is 1 to 5 µM.
Compound `CCC(CC)CNc1nc(Nc2ccc(F)c(Cl)c2)nc2c(N3CCNCC3)cccc12` [Example 102, N^2-(3-chloro-4-fluorophenyl)-N^4-(2-ethylbutyl)-8-(piperazin-1-yl)quinazoline-2,4-diamine] returned an EC50 in test [1] of 5 to 30 µM. At Son of Sevenless (SOS), the Ki was more than 5 µM. For the same compound, the IC50 in test [2] lay in the range of 1 to 5 µM.
